The values below come from PubChem BioAssay AID540268 (Broad Institute, 2011).

Calls of active or inactive are those of the source. How the calls were made is not given here.

By AC50 is commonly meant the midpoint of the concentration-response curve, whichever way the signal moves.

The first assay can be described thus: growth inhibition of yeast carrying parasite Hsp90, dose response, anti-malarial Hsp90 inhibitor project, ATP luminescence, 48 h, cherry-picked samples (AID 540268).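 On activity change, negative = inhibition: 0% = neutral control wells and -100% = positive control wells.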 The following applies: yeast expressing the parasite Hsp90, ATP luminescence.
In the case of `CCCCC(=O)NC(c1cccc([N+](=O)[O-])c1)c1ccc2cccnc2c1O` (configuration not stated), the AC50 is 2.62 µM.

`CC(C)(C)c1ccc(NC(=O)COC(=O)c2ccc([N+](=O)[O-])s2)cc1`: the AC50 was 3.88 µM. As for `CCC1=NN2C(=N)/C(=C\c3cccn3-c3ccc(C)cc3C)C(=O)N=C2S1`, the AC50 is 8.14 µM.

Consider `O=C(NN1C(=O)/C(=C/c2ccc(O)c([N+](=O)[O-])c2)SC1=S)c1ccccc1Cl`, for which the AC50 is 4.13 µM. Still for that read-out and setting: next, `Cc1ccc(C(c2cc(Cl)c3cccnc3c2O)N2CCN(C)CC2)cc1` (configuration not stated): 0.507 µM; `O=C(/C=C/c1cccc([N+](=O)[O-])c1)c1ccco1`: 4.27 µM. Consider `O=C(c1ccc(Br)cc1)C(CN1CCOCC1)c1ccccc1` (configuration not stated), for which the AC50 is 2.91 µM. On the same count and under the same terms, as for `CCC(C)Nc1ccc(NC(C)CC)cc1` (configuration not stated), the figure is 3.26 µM; as for `CC1CCN(C(CC(=O)c2ccccc2)C(=O)c2ccccc2)CC1` (configuration not stated), 3.28 µM; as for `O=[N+]([O-])c1cc(-n2cnnn2)ccc1N1CCC(Cc2ccccc2)CC1`, 4.23 µM.

Regarding `Cc1cc(/C=C2\SC(=S)NC2=O)c(C)n1-c1cccc(O)c1`, the AC50 is 8.7 µM. For `S=C1SCN(Cc2cccnc2)CN1Cc1cccnc1`, the AC50 is 4.07 µM. On to `O=C(Nc1ccc(Cl)cc1Cl)c1cccc(N2C(=O)C=CC2=O)c1`, for which the AC50 is less than 0.195 µM. As for `COc1ccc(C)cc1N=Nc1ccc(O)c2ncccc12`, the AC50 was 1.18 µM. As for `N/C(=N\OC(=O)c1ccc2ccccc2c1)c1ccccc1Cl`, the AC50 is 4.46 µM. Still for that read-out and setting: as for `O=C(NCc1ccc2c(c1)OCO2)c1ccc(Br)cc1`, the figure is 4.46 µM; as for `COc1ccc(Cl)cc1C(Nc1cccnc1)c1ccc2cccnc2c1O` (configuration not stated), 1.35 µM; as for `CSc1nc2cc(Oc3cccc(Cl)c3Cl)c(Cl)cc2[nH]1`, 6.41 µM. For the compound `O=C(Nc1ccccc1)C(Cl)C(=O)c1ccccc1` (configuration not stated), the concentration at half-maximal activity (AC50) is 0.532 µM. Regarding `Oc1ccc(O)c2c1C1(Cl)C(Cl)=C(Cl)C2(Cl)C1(Cl)Cl`, the AC50 is 3.87 µM. Same read-out and setting: as for `O=C(Nc1ccc(F)cc1)c1nc(S(=O)(=O)Cc2ccccc2)ncc1Cl`, the figure is 5.68 µM. In the case of `O=c1oc(-c2ccccc2)cc(Cl)c1Cl`, the AC50 was 3.77 µM. Same read-out and setting: as for `Oc1c(C(c2ccccc2Cl)N2CCCC2)ccc2cccnc12` (configuration not stated), the figure is 3.51 µM. Turning to `Cc1ccc(N=N/C(=C\O)C(=O)c2ccc(Cl)cc2)cc1`, the half-maximal activity concentration (AC50) was 8.29 µM.

In the case of `Nc1ccccc1C#CC(=O)c1ccccc1`, the AC50 is 7.65 µM.

With `Cc1ccc(S(=O)(=O)NCC23C=CC(O2)C2C(=O)N(c4ccccc4)C(=O)C23)cc1` (configuration not stated), the AC50 was 4.8 µM.

On to `O=C(/C=C/c1ccccn1)c1cc(Br)ccc1O`, for which the concentration at half-maximal activity (AC50) is 1.01 µM. Consider `Clc1ccc(C(Cn2ccnc2)OCc2csc3c(Cl)cccc23)c(Cl)c1` (configuration not stated), for which the AC50 was less than 0.195 µM.

For the compound `O=C(O)c1ccccc1NC(c1ccccc1)c1ccc2cccnc2c1O` (configuration not stated), the AC50 is 4.87 µM. Turning to `CCOC(=O)c1c(C)oc2c1c(C(c1cccnc1)N1CCOCC1)c(O)c1ccccc12` (configuration not stated), the AC50 was 5.35 µM. Consider `Cc1[nH]c(N=Nc2ccccc2)nc1N=Nc1ccccc1`, for which the AC50 is 4.41 µM. Consider `O=c1cc(CSc2ccc(Cl)cc2)nc(-c2ccccn2)[nH]1`, for which the AC50 is 16.6 µM. Still for that read-out and setting: as for `NC(=O)C1CCN(C2CC(=O)N(c3ccc(F)c(Cl)c3)C2=O)CC1` (configuration not stated), the figure is 1.67 µM; as for `O=C1Nc2ccc(Br)cc2/C1=C/C(=O)c1ccc2c(c1)OCO2`, 2.63 µM. Take `CC[C@@H](C)[C@H](NC(=O)OC(C)(C)C)c1nnc(S(=O)(=O)Cc2cc(C)ccc2C)o1`: the AC50 was 5.46 µM.

In the case of `CCCOc1ccc(N2C(=O)CC(N3CCC(C(=O)OCC)CC3)C2=O)cc1` (configuration not stated), the concentration at half-maximal activity (AC50) is 6.07 µM. Regarding `COc1ccc(C(C[N+](=O)[O-])c2c(C)[nH]n(-c3ccccc3)c2=O)cc1` (configuration not stated), the AC50 was 7.77 µM. Consider `Cc1ccc(S(=O)(=O)Nc2cc(Cl)c(O)c3ncccc23)cc1`, for which the AC50 was 2.09 µM.

In the case of `CC(C)(C)SCCNC(=O)c1ccc(Cl)c([N+](=O)[O-])c1`, the AC50 is 4.37 µM. In the case of `CCC(C)(C)c1ccc(OCCCC[n+]2cccc(C)c2C)c(C(C)(C)CC)c1`, the AC50 was 4.06 µM. Same read-out and setting: as for `COc1ccc2c(c1)C=C(C(=O)NCc1ccc(Cl)cc1)CO2`, the figure is 4.21 µM; as for `Nc1ncnc2c1ncn2C1OC(COP(=O)(O)O)C(O)C1O` (configuration not stated), 2.27 µM; as for `CCCCCCCCC/C(=N\O)c1ccccn1`, 3.65 µM. Consider `CCCCCCCCn1sccc1=O`, for which the concentration at half-maximal activity (AC50) is 0.871 µM. Same read-out and setting: next, `O=[N+]([O-])c1cc(Cl)c(O)c2ncccc12`: 1.81 µM.

Consider `Oc1ccc2ccccc2c1/C=N/Nc1nnc(-c2ncc[nH]2)c2ccccc12`, for which the concentration at half-maximal activity (AC50) is 4.24 µM. Regarding `O=C1c2ccccc2NC(c2ccc(-c3ccc(Br)cc3)o2)N1O` (configuration not stated), the AC50 was 7.96 µM. `CC(NC(=O)c1ccc(Br)cc1)c1ccc2c(c1)CCCC2` (configuration not stated): the AC50 was 1.37 µM. As for `O=[N+]([O-])c1ccc2c(c1)-c1ccccc1C2=NO`, the AC50 was 2.72 µM. On to `Oc1c(C(Nc2nccs2)c2ccc(C(F)(F)F)cc2)ccc2cccnc12` (configuration not stated), for which the concentration at half-maximal activity (AC50) is 2.49 µM. For `CCCCCCCCCCCCCCCC[N+](C)(C)CC`, the AC50 was 4.04 µM. For the compound `Cc1ccc(NN2C(=O)C=C(c3ccc(Cl)cc3)C2=O)cc1`, the AC50 was less than 0.195 µM.

As to `O=C(OCC(=O)C12CC3CC(CC(C3)C1)C2)c1ccc(O)cc1O`, the AC50 is 15.6 µM. For the compound `CCCC1COC(Cn2cncn2)(c2ccc(Cl)cc2Cl)O1` (configuration not stated), the AC50 is less than 0.195 µM. As for `Oc1ccc(/C=C/c2ccc3cccc(O)c3n2)cc1Br`, the AC50 was 4.26 µM. Turning to `O=c1oc2ccccc2c(O)c1Cc1cc(Cl)c2cccnc2c1O`, the concentration at half-maximal activity (AC50) is 3.36 µM. As for `CCC(C)n1ncn(-c2ccc(N3CCN(c4ccc(OCC5COC(Cn6cncn6)(c6ccc(Cl)cc6Cl)O5)cc4)CC3)cc2)c1=O` (configuration not stated), the AC50 was less than 0.195 µM. As for `O=S1(=O)Nc2c(ccc3cccnc23)-c2ccccc21`, the AC50 was 0.894 µM. The same measure, in the same setting: as for `Cc1nnc(N=c2ssnc2Cl)o1`, the figure is 1.03 µM. As for `O=C1c2cc(F)ccc2-n2c1nc1ccccc1c2=O`, the AC50 was 2.96 µM. Consider `O=C(O)c1cn(-c2ccc(N3CCCC3)c(F)c2)c2c(F)c(F)c(F)cc2c1=O`, for which the AC50 is 4.36 µM. Turning to `COCCOC(=O)/C(=C/c1ccc(OC(=O)c2ccccc2)cc1)C(C)=O`, the AC50 was 2.68 µM. Same read-out and setting: next, `COc1ccc(C2=CC3=C(Br)C(=O)C(C)(OC(=O)c4cccs4)C(=O)C3=CO2)cc1` (configuration not stated): 4.28 µM; `CC(=O)N1N=C(c2ccccc2)OC1c1ccc([N+](=O)[O-])s1` (configuration not stated): 8.65 µM; `CN1CCN(C(c2ccc(Cl)cc2)c2cc(Cl)c3cccnc3c2O)CC1` (configuration not stated): 0.615 µM. Take `CCCc1cc(=O)oc2cc(OCc3ccc(C(=O)O)cc3)ccc12`: the AC50 is 2.73 µM. With `c1ccc(-c2nnc(-c3ccccn3)nc2NC2CCCCC2)cc1`, the AC50 was 0.393 µM. With `O=C(/C=C/c1ccccc1)NC(=S)NNC(=O)c1cnccn1`, the AC50 is 3.69 µM. With `CCN(CC)C(=S)SSC(=S)N(CC)CC`, the concentration at half-maximal activity (AC50) is 4.55 µM. For the compound `O=C(CC(O)(C(F)(F)F)C(F)(F)F)Nc1ccc(Cl)c(Cl)c1`, the AC50 is 17.5 µM. Still for that read-out and setting: as for `O=S(=O)(/C=C/c1ccccc1)NC1CCCCCC1`, the figure is 4.16 µM; as for `O=C1/C(=C/c2ccncc2)CCC/C1=C\c1ccncc1`, 4.25 µM; as for `CCCCCCCCCCC[N+](C)(C)CC/C=C1/c2ccccc2Sc2ccc(Cl)cc21`, 7.99 µM. Still for that read-out and setting: next, `O=C1C=CC(=O)N1c1ccc2c(c1)Cc1cc(F)ccc1-2`: less than 0.195 µM; `Oc1ccc(-c2c(-c3ccsc3)sc3ccccc23)cc1`: 2.72 µM.

As for `Cc1cccc(COC(=O)CCCNC(=O)c2ccc(Cl)cc2)c1`, the AC50 was 8.69 µM. As for `CCS(=O)(=O)Nc1cccc(-c2cc(-c3ccccc3)c3cc(C)ccc3n2)c1`, the concentration at half-maximal activity (AC50) is 4.55 µM. As to `Clc1ccccc1CN(Cc1ccco1)Cc1nnnn1C1CCCC1`, the AC50 is 9.49 µM. Still for that read-out and setting: as for `O=C1CC(N2CCC(c3nc4ccccc4o3)CC2)C(=O)N1c1ccc(Cl)c(C(F)(F)F)c1` (configuration not stated), the figure is 4.08 µM. Still for that read-out and setting: next, `O=C1C=C(c2ccc(Cl)cc2)C(=O)N1Nc1ccccc1`: less than 0.195 µM; `CC(=NNC(=S)N1CCN(C2CCCCCC2)CC1)c1ccccn1`: 3.95 µM; `O=C1C=CC(=O)N1c1ccc(O)cc1`: 1.44 µM.

Turning to `CCCCCCCCCCCCCCCC[N+](C)(C)CCl`, the AC50 is 4.3 µM. On to `Cc1cccc(NC(=S)NCC23C=CC(O2)C2C(=O)N(c4ccc(Cl)cc4)C(=O)C23)c1` (configuration not stated), for which the AC50 was 8.4 µM. With `O=C(/C(=C/c1ccc(Cl)cc1)c1nc2ccccc2[nH]1)c1ccccc1`, the AC50 was 7.04 µM. As to `Cc1cc(/C=C\c2ccc3cc(N(C)C)ccc3[n+]2C)c(C)n1-c1ccccc1`, the AC50 is 4.39 µM. As to `COc1ccc2oc(/C=C/N(C)C)c(C(=O)c3ccc(Cl)cc3)c2c1`, the concentration at half-maximal activity (AC50) was 3.78 µM. Still for that read-out and setting: as for `Cc1ccc(C(=O)ONC(=O)c2ccc(Cl)cc2)cc1[N+](=O)[O-]`, the figure is 0.387 µM; as for `Cc1cccc(C(=O)NC(=S)NNC(=O)Cc2ccccc2)c1`, 4.34 µM.

Take `Cc1cccc(C)c1NC(=O)C(Cl)C(=O)c1ccccc1` (configuration not stated): the AC50 is 1.11 µM. Turning to `CC(C)=CCc1cc([C@@H]2COc3c(ccc4c3C=CC(C)(C)O4)C2)c(O)cc1O`, the AC50 is 0.265 µM. As to `OCCOCCn1c(C2CCCN2c2nc(-c3ccc(F)cc3)cs2)nc2cc(Cl)c(Cl)cc21` (configuration not stated), the concentration at half-maximal activity (AC50) is 6 µM. Still for that read-out and setting: as for `CCn1c(CNc2ccc(Cl)cc2)nnc1SCc1ccccc1`, the figure is 2.26 µM; as for `NC(=O)c1ccc(N=Cc2ccc([N+](=O)[O-])s2)cc1`, 1.48 µM. With `Cc1ccc(/C=C/C(=O)c2ccccc(=O)c2O)c(C)c1`, the AC50 is 1.93 µM.

With `O=C1C=CC(=O)N1c1ccc(OC(F)F)cc1`, the half-maximal activity concentration (AC50) is 0.421 µM. For `Clc1nssc1=Nc1ccc(Br)cc1`, the half-maximal activity concentration (AC50) is 3.4 µM. On to `CN(C)CC1CC/C(=C\c2ccc(O)cc2)C1=O` (configuration not stated), for which the AC50 was 5.54 µM. On the same count and under the same terms, next, `Cc1ccc(OCC(=O)NNC(=S)NC(=O)C(C)(C)C)c(Br)c1`: 5.05 µM.

The assay is the same for the next values; noted with them: yeast expressing the parasite Hsp90, ATP luminescence, at 26 µM (top of the series).
As for `O=C1C=CC(=O)N1Cc1ccccc1`, the activity change, negative = inhibition is 21.3% (inactive).

Take `Cc1cccc(C)c1NC(=O)COC(=O)c1ccc([N+](=O)[O-])o1`: the activity change, negative = inhibition was -33.6% (inactive). In the case of `CC(C)=CCc1c(O)ccc(C2COc3c(CC=C(C)C)c(O)cc(O)c3C2=O)c1O` (configuration not stated), the activity change, negative = inhibition is -110% (inactive).
